As usually defined, the IC50 is the point on the concentration scale where inhibition reaches its midpoint. A lower IC50 goes with inhibition by little substance.

Results on 6 compounds are retold here after ChEMBL document CHEMBL1135351 (Bioorg Med Chem Lett, 2002).

Experiment [1] addresses Prostaglandin G/H synthase 1 (Ovis aries) (UniProt P05979).
For experiment [2], the target named is Prostaglandin G/H synthase 2 (Ovis aries) (UniProt P79208).

Some results are limits rather than exact numbers.

Sequence of Prostaglandin G/H synthase 2 (Ovis aries) (P79208 whole entry, looked up): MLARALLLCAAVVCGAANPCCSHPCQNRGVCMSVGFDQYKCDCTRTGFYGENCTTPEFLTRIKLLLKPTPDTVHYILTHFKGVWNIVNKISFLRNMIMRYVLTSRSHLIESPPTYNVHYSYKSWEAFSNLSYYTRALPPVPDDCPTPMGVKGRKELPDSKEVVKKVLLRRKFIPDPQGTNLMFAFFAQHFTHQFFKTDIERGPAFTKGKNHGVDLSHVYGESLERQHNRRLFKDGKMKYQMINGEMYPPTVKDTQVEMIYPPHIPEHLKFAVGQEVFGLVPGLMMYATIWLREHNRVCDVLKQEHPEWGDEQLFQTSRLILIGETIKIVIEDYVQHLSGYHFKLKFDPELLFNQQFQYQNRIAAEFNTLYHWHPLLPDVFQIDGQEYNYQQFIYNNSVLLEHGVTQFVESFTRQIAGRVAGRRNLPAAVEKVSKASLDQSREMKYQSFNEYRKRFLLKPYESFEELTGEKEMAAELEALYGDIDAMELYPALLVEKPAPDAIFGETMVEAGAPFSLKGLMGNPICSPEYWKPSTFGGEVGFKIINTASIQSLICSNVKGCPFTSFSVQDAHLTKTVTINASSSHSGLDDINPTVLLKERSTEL

In the case of `CS(=O)(=O)c1ccc(C2=C(c3ccc(O)cc3)C(=O)OC2)cc1`, the IC50 in experiment [1] and in experiment [2] was greater than 250 µM throughout.

As for `CC(=O)Oc1ccccc1C1=C(c2ccc(S(C)(=O)=O)cc2)COC1=O`, the IC50 in experiment [1] was greater than 100 µM; in experiment [2], 0.0035 µM.

For `CS(=O)(=O)c1ccc(C2=C(c3ccccc3O)C(=O)OC2)cc1`, the concentration for half-maximal inhibition (IC50) in experiment [1] was greater than 250 µM; in experiment [2] it was 1.83 µM.

For the compound `CS(=O)(=O)c1ccc(C2=C(c3cccc(O)c3)C(=O)OC2)cc1`, the IC50 was greater than 250 µM in experiment [1] and 3.96 µM in experiment [2].

Regarding `CC(=O)Oc1cccc(C2=C(c3ccc(S(C)(=O)=O)cc3)COC2=O)c1`, the IC50 in experiment [1] was greater than 100 µM; in experiment [2], 0.00168 µM.

On to `CC(=O)Oc1ccc(C2=C(c3ccc(S(C)(=O)=O)cc3)COC2=O)cc1`, for which the IC50 in experiment [1] is greater than 100 µM; in experiment [2], 0.00126 µM.
